# Legend:
# [1] = system: early stage encephalophyma, melanoma, lymphoma; conditions: background statement; cited from earlier work
# [2] = system: Peripheral leukocyte count; assay: Effects on peripheral leukocyte count (Test Example 6); assay type: in vivo, DDY mice
# Description: Comparison of effects of CNUA and Me-CCNU* on peripheral leukocyte count:
# Six-week old DDY mice each weighing 22±1 g; one group comprising 5 male mice.
# CNUA and Me-CCNU were given intraperitoneally on the first day. The, blood was drawn from a tail vein at time intervals to determine the leukocyte count. The samples were used in the form of a solution in an isotonic sodium chloride solution.
# tumor = conditions: background statement; cited from earlier work
smiles,measurement,setting,value
"O=NN(CCCl)C(=O)NCCCl [BCNU, 1,3-bis-(2-chloroethyl)-1-nitrosourea]",effectiveness against tumors,[1],"effective against early stage encephalophyma, melanoma, lymphoma"
"O=NN(CCCl)C(=O)NC1CCCCC1 [CCNU, 1-(2-chloroethyl)-3-cyclohexyl-1-nitrosourea]",effectiveness against tumors,[1],"effective against early stage encephalophyma, melanoma, lymphoma"
"C[C@H]1CC[C@H](NC(=O)N(CCCl)N=O)CC1 [Me-CCNU, 1-(2-chloroethyl)-3-(trans-4-methylcyclohexyl)-1-nitrosourea, reference compound]",Peripheral leukocyte count after the administration,"[2]; 20 mg/kg ip, 2 day",55.0 % based on the control
same,Peripheral leukocyte count after the administration,"[2]; 20 mg/kg ip, 4 day",53.3 % based on the control
same,Peripheral leukocyte count after the administration,"[2]; 20 mg/kg ip, 7 day",50.2 % based on the control
same,Peripheral leukocyte count after the administration,"[2]; 20 mg/kg ip, 10 day",59.5 % based on the control
same,Peripheral leukocyte count after the administration,"[2]; 20 mg/kg ip, 14 day",145 % based on the control
same,Peripheral leukocyte count after the administration,"[2]; 40 mg/kg ip, 2 day",56.0 % based on the control
same,Peripheral leukocyte count after the administration,"[2]; 40 mg/kg ip, 4 day",36.5 % based on the control
same,Peripheral leukocyte count after the administration,"[2]; 40 mg/kg ip, 7 day",34.0 % based on the control
same,Peripheral leukocyte count after the administration,"[2]; 40 mg/kg ip, 10 day",40.7 % based on the control
same,Peripheral leukocyte count after the administration,"[2]; 40 mg/kg ip, 14 day",78.1 % based on the control
same,effectiveness against tumors,[1],"effective against early stage encephalophyma, melanoma, lymphoma"
O=NN(CCCl)C(=O)N[C@H]1C(O)O[C@H](CO)[C@@H](O)[C@@H]1O (stereo partly drawn) [chlorozotocin],antitumor effects,tumor,exhibit antitumor effects
CN(N=O)C(=O)N[C@H]1C(O)O[C@H](CO)[C@@H](O)[C@@H]1O (stereo partly drawn) [streptozotocin],antitumor effects,tumor,exhibit antitumor effects

# From US4349546A, “D-Allose derivative and preparation method therefor” (Wakamoto Pharmaceutical Co., Ltd., priority 1980, dated 1982)
